Measured values: US20250281584A1, “ACTIVE VACCINATION FOR THE TREATMENT OF NGF-RELATED DISORDERS” (priority 2024, published 2025)

How the values were obtained:
[1] = test system: kaolin-induced inflammation in the hind paw; assay: Kaolin model of acute inflammatory pain, lameness score; assay type: in vivo, dog
Protocol: Kaolin-induced inflammation in the hind paw was performed based on the model described in “Paw inflammation model in dogs for preclinical pharmacokinetic/pharmacodynamic investigations of nonsteroidal anti-inflammatory drugs” (Jeunesse et al., 2011, J Pharmacol Exp Ther., 338 (2): 548-58). Briefly, the dogs were anaesthetized with an intravenous administration of propofol (Propovet, 6.5 mg/kg, Zoetis, France) and kaolin was injected subcutaneously on one paw. On D42, the injections were performed on the right hind paw of all dogs.
Lameness score was assessed on a typical course made by each dog using a numerical rating scale initially developed by Giraudel et al. (Giraudel J M et al., 2005, Br J Pharmacol 146:642-653; Giraudel J M et al., 2005, J Vet Pharmacol Ther 28:275-285) on cats and adapted by Jeunesse et al. (Jeunesse et al., 2011, J Pharmacol Exp Ther., 338 (2): 548-58). […] Lameness score was assessed on live and separately on videos by a different operator. […]

[2] = Thermal shift assay with SYPRO Orange (thermal stability of VLPs); assay type: physicochemical; details: 0.5 mg/ml VLPs in 5 mM Na phosphate, 2 mM EDTA, pH 7.5, real-time PCR system
Protocol: A thermal shift assay involving temperature-induced denaturation and the fluorescent dye SYPRO® Orange (Sigma, Saint Louis, USA) was used for this purpose. The dye is a naturally quenched in solution but as the VLPs denature with increasing temperatures, SYPRO® Orange interacts with exposed hydrophobic amino acids and cores and emits a fluorescent signal, which is measured by fluorometry. From the resultant melting curve (fluorescent signal vs temperature), the melt peak curves and melting temperature were determined. Solutions containing 0.5 mg/ml of sucrose density gradient purified (as described in Example 1 above) CMV-Ntt830 VLPs or CMV-Ntt830-E4 VLPs in 5 mM Na phosphate, 2 mM EDTA, pH 7.5 were assayed with a real-time PCR system MJ Mini (Bio-Rad, Hercules, USA) using a DNA melting point determination program. Data were analysed using Opticon Monitor Software and melting curves processed at a smooth setting of four.

[3] = Processability of VLPs by anion exchange chromatography (aggregation by NAGE); assay type: physicochemical; details: DEAE resin, pH 9.0, NaCl elution
Protocol: To test the processability of prior art CMV-Ntt830 VLPs with anion exchange chromatography (AEX), sucrose gradient purified VLPs were prepared as described in Examples 2-4 of WO2016/062720A1. Five mls of CMV-Ntt830 VLPs (1 mg/ml) were buffer exchanged into 5 mM sodium borate pH 9 and loaded onto a 1.0 ml Macro-Prep DEAE Bio-Rad anion exchange cartridge equilibrated with the same buffer. After the loading step, the concentration of NaCl in the elution buffer was increased in step-wise manner (0.1, 0.2, 0.3, 0.4, 0.5, 0.8., 1.0 and 2.0 M). Fractions were collected and measured at 260 nm using Nanodrop spectrophotometer to measure protein and subjected to native agarose gel electrophoresis (NAGE).
In contrast, non-aggregated CMV-Ntt830-E4 VLPs could be readily purified from a crude lysate using AEX. Clarified lysate prepared from E. coli expressing CMV-Ntt830-E4 VLPs (as described in Example 1) in 50 mM citrate, 5 mM Borate buffer pH 9.0 was loaded onto 60 ml of Fracto-DEAE (Merck) in an XK 26/20 column equilibrated with the same buffer and eluted by applying a continuous NaCl gradient from 0 to 1.0 M in the same buffer. The eluate was monitored at A260 nm to measure protein and conductivity measured to monitor salt concentration. The clarified lysate, flow-through and fractions were collected and subjected to NAGE and SDS-PAGE.

[4] = Ionic strength/salt stability of VLPs in NaCl, native agarose gel electrophoresis; assay type: physicochemical; details: NaCl concentrations up to 0.4 M, room temperature, 0.5 mg/ml, pH 7.5
Protocol: FIG. 12: Stability of CMV-Ntt830 VLPs and CMV-Ntt830-E4 VLPs in solution in the presence of different NaCl concentrations. Samples of CMV-Ntt830 VLPs and CMV-Ntt830-E4 VLPs at 0.5 mg/ml were incubated at room temperature in 5 mM Na phosphate, 2 mM EDTA, pH 7.5 with different concentrations of NaCl (the molar concentration of NaCl in each sample is indicated at the bottom of the gels) for up to 2 hours. Samples were analysed by native agarose gel electrophoresis and ethidium bromide staining. Panels A and B show NAGE analysis of CMV-Ntt830 VLP and CMV-Ntt830-E4 VLPsamples respectively. […] Black arrows indicate the position of loading wells within the gels and location of VLPs within the wells and gels. The presence of CMV-Ntt830 VLPs in the loading wells after electrophoresis (panel A) is due to the formation of VLP aggregates which are too large to enter the gel. Integral unaggreagted VLPs migrated into the gel.
The relative stabilities of CMV-Ntt830 VLPs and CMV-Ntt830-E4 VLPs to NaCl were tested by incubating purified VLPs (0.5 mg/ml in 5 mM Na phosphate, 2 mM EDTA, pH 7.5) at room temperature with various NaCl concentrations.

canine NGF protein [5] = assay: NGF total IgG ELISA in dog sera, kaolin study (Example 7); assay type: in vivo; details: study day 42; vaccine 250 μg s.c. D0 and D21; bedinvetmab s.c. once D35
Protocol: (§1) The range of the actual doses of bedinvetmab administered was 0.52-0.97 mg/kg in line with the product information of the marketing authorization. • For the Vaccine group, the dogs received the inventive vaccine candidate, cNGF-CMV-Ntt830-E4 VLP, twice subcutaneously at the back of the neck on day 0 (DO) and day 21 (D21) at the dose of 250 μg VLP-NGF/dog.
Blood samples for serology were collected at the following time points on DO, D21, D70, D84, D105 and D119 for the Vaccine and the Placebo groups only, on D35 for the Librela® group only, on D42 and on D56 for the three group. Blood samples were centrifuged and the serum decanted into three aliquots per sample.
NGF- and cNGF-CMV-Ntt830-E4 VLP total specific IgG antibodies in sera were measured by ELISA. ELISA plates were coated with recombinantly produced canine NGF protein (1.0 μg/mL) or cNGF-CMV-Ntt830-E4 VLP (2.0 μg/mL). Serum samples were pre-diluted 1:100, transferred to the ELISA plates and subjected to serial dilutions 3-fold serial dilution steps with a total of 11 dilutions being tested per serum sample. […] Relative concentrations of anti-NGF IgG antibody in the serum (μg/mL) were calculated by multiplying the EC50 values of the serum with the EC50 values determine for the Bedinvetmab standard. […]

[6] = in vivo; cited from earlier work
human beta-NGF = human beta-NGF (Homo sapiens, UniProt P01138); assay: TF-1 cell based NGF neutralization bioassay, kaolin study
Chain of human beta-NGF (P01138 122-241): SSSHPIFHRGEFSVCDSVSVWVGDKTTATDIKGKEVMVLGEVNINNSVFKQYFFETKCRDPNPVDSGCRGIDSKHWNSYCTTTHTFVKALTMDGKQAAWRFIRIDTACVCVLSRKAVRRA
Protocol: as §1
Heat-inactivated (56° C. 30 min), serial-diluted sera or antibody standard (canonized monoclonal anti-canine NGF antibody bedinvetmab, Zoetis) were incubated with 5 ng/mL human beta-NGF for 1 hour at room temperature. The NGF-sera/antibody solution was then added to […] starved overnight of growth factors. Cell viability was quantified over the last 7 hour period of a total 72 hour incubation period using the CellTiter 96 AQueous One Solution Cell Proliferation Assay reagent (Promega). Absorbance was measured using a microplate reader (TecanSpark) at a wavelength of 490 nm and a reference wavelength of 700 nm. Titration curves were generated by plotting the difference in absorbance (490 nm-700 nm) versus the dilution factor of the serum sample. Using a 4-Parameter logistic regression curve fit model the IC50 values, the dilution factor corresponding to half maximum OD values, were determined. Serum titers of samples at different time points were defined and depicted as the IC50 values of the curve fit. […]

hNGF binding to TrkA = target: T1, hNGF binding to TrkA (Homo sapiens, UniProt P01138); assay: TrkA based NGF binding ELISA, ACLT+PMM study; assay type: biochemical; details: day 203, group B, 6 days after administration
T1 construct: 5 ng/ml human mature NGF (R&D, 256-GF-100/CF); purchased R&D (hNGF); SinoBio (TrkA) 256-GF; 11073-H08H
T1 sequence (P01138 122-241): as above
Protocol: ELISA plates were coated with 100 μL/well of 0.5 μg/mL TrkA (SinoBio 11073-H08H) in PBS over night at +4° C. After washing with PBST, plates were blocked using 200 μL/well SuperBlock (ThermoScientific 37518) for 1 hour at room temperature. Serum samples or positive control antibody (caninized monoclonal anti-canine NGF antibody bedinvetmab, Zoetis) were diluted in 2% BSA/PBST and incubated with 1.25 ng/ml hNGF (R&D 256-GF) for 1 hour. After washing the ELISA plates, serum/NGF solution was added to the plates. Plates were incubated for 1 hour at room temperature, washed and HRP-labelled rabbit anti-NGF antibody (SinoBio 11050-RP02-H) at a concentration of 1.5 μg/mL was added. After the plates were washed 4 times with 1×PBS/0.05% (v/v) Tween 20, TMB substrate (ThermoScientific 3401) as the HRP substrate and development reaction was stopped by addition of 2M H2SO4. OD values at 450 nm were measured using a microplate reader (TecanSpark). […] Using a 4-Parameter logistic regression curve fit model the IC50 values, the dilution factor corresponding to half maximum OD 450 nm values, were determined. […] Relative concentrations of neutralizing antibody in the serum (μg/mL) were calculated by multiplying the IC50 values of the serum with the IC50 values determine for the bedinvetmab standard (μg/mL). […]

canine NGF protein [7] = assay: NGF total IgG ELISA in dog sera, ACLT+PMM chronic pain study (Example 8); assay type: in vivo; details: day 203 sera, group B, monthly s.c. administration
Protocol: NGF- and cNGF-CMV-Ntt830-E4 VLP total specific IgG antibodies in sera were measured by ELISA. ELISA plates were coated with recombinantly produced canine NGF protein (1.0 μg/mL) or cNGF-CMV-Ntt830-E4 VLP (2.0 μg/mL). Serum samples were pre-diluted 1:100, transferred to the ELISA plates and subjected to serial dilutions 3-fold serial dilution steps with a total of 11 dilutions being tested per serum sample. Following incubation, horse-radish peroxidase-(HRP-) labelled goat anti-dog IgG (Jackson ImmunoResearch, cat no 304-035-008, lot 156911) was added. After 2 hours incubation at room temperature, the plates were washed 4 times with 1×PBS/0.05% (v/v) Tween 20. […] Serum titers of samples at different time points were defined and depicted as the EC50 values of the curve fit. Titers below the detection limit of the assay were set to 100 for anti-CMV IgG respectively 50 for anti-NGF IgG, half of the lowest dilution factor (1:200 respectively 1:100) used in the assay. Bedinvetmab was used as a standard in the NGF IgG ELISA. Relative concentrations of anti-NGF IgG antibody in the serum (μg/mL) were calculated by multiplying the EC50 values of the serum with the EC50 values determine for the Bedinvetmab standard. Neutralization titers below the detection limit of the assay were set the equivalent monoclonal antibody concentration of the EC50 value of 50. […]

PC12 cells = assay: Neurite outgrowth bioassay for authenticity of recombinant NGF; assay type: cell-based; details: 5 days, 6.25-100 ng/ml NGF
Protocol: FIG. 15B: PC12 cells were grown for 5 days with recombinant human mature NGF produced in mouse myeloma cells (R&D systems) (black squares) or with canine mature NGF produced in E. coli as described herein (grey circles). Cells were grown in the presence of 100, 50, 25, 12.5 and 6.25 ng/ml of recombinant NGF and the percentage of cells with defined neurite outgrowth determined.

Cc1cnc(NC(=O)C2=C(O)c3ccccc3S(=O)(=O)N2C)s1 [Inflacam®, meloxicam]
mean lameness score as compared to the Placebo group ([1]; one day after kaolin-induced inflammation, 0.2 mg meloxicam/kg s.c. D43): reduced

CMV-Ntt830-E4 VLPs: modified CMV VLP of chimeric CMV polypeptide SEQ ID NO:10, four glutamic acid residues (E4) inserted into CMV-Ntt830
melting temperature (melting point) [2]: ~57 °C | aggregated VLPs after anion exchange chromatography (NAGE loading wells) [3]: no evidence of aggregated VLPs | aggregate formation in presence of NaCl [4]: no evidence of aggregate formation

bedinvetmab
NGF-specific IgG GMT (standard equivalent concentration), peak (canine NGF protein [5]): 3.68 µg/mL | mean titers (dashed line FIG. 24B) [6]: 1 µg/mL | peak antibody titer in serum after administration of bedinvetmab [6]: 6.1 µg/mL | peak NGF neutralizing titers (human beta-NGF; study day 42, study group 1): 3.93 µg/mL | dogs with levels below the detection limit of the TF-1-based NGF neutralization assay (human beta-NGF; study day 56, 21 days after administration): 6 of 7 | NGF neutralizing antibody titers (hNGF binding to TrkA): 7.85 µg/mL | mean AUC for lameness scores ([1]; 14 days post kaolin challenge, 7 dogs/group): 15.36 | NGF-specific IgG GMT (canine NGF protein [7]): 10.9 µg/mL

B1: canine mature NGF: recombinant canine mature NGF (SEQ ID NO:30) produced in E. coli, with C-terminal GCG motif (SEQ ID NO:31) or His-tag (SEQ ID NO:33) (protein)
chain: SSSHPVFHRGEFSVCDSVSVWVGDKTTATDIKGKEVMVLGEVNINNSVFKQYFFETKCRDPTPVDSGCRGIDSKHWNSYCTTTHTFVKALTMDGKQAAWRFIRIDTACVCVLSRKAGRRAG
modifications: C-terminal GCG motif or His-tag
activity at inducing neurite outgrowth compared with commercial mature NGF (R&D systems) (PC12 cells): similarly active
